Data taken from PubChem BioAssay (NCI).
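Dose response: 5 concentrations. Exposure: 48 h. Format: 96-well plates. Endpoint: linear interpolation; highest concentration if not reached. TGI is the concentration that stops growth completely.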

Columns and labels:
Experiment in all cases: growth of human tumour cells (NCI), 48 h
M14 melanoma = tested on: M14 melanoma
IGROV1 ovarian = tested on: IGROV1 ovarian
OVCAR-4 ovarian = tested on: OVCAR-4 ovarian
KM12 colon = tested on: KM12 colon
PC-3 prostate = tested on: PC-3 prostate
HOP-62 NSCLC = tested on: HOP-62 NSCLC
HOP-92 NSCLC = tested on: HOP-92 NSCLC
HL-60(TB) leukemia = tested on: HL-60(TB) leukemia
UACC-62 melanoma = tested on: UACC-62 melanoma
K-562 leukemia = tested on: K-562 leukemia
BT-549 breast = tested on: BT-549 breast
MDA-N = tested on: MDA-N
OVCAR-3 ovarian = tested on: OVCAR-3 ovarian
HCC-2998 colon = tested on: HCC-2998 colon
MOLT-4 leukemia = tested on: MOLT-4 leukemia
LOX IMVI melanoma = tested on: LOX IMVI melanoma
NCI-H226 lung = tested on: NCI-H226 lung
786-0 renal = tested on: 786-0 renal
UO-31 renal = tested on: UO-31 renal
CCRF-CEM leukemia = tested on: CCRF-CEM leukemia
NCI-H460 lung = tested on: NCI-H460 lung
NCI-H522 lung = tested on: NCI-H522 lung
HCT-15 colon = tested on: HCT-15 colon
MALME-3M melanoma = tested on: MALME-3M melanoma
SNB-19 CNS = tested on: SNB-19 CNS
SF-295 CNS = tested on: SF-295 CNS
MCF7 breast = tested on: MCF7 breast
U251 CNS = tested on: U251 CNS
SF-268 CNS = tested on: SF-268 CNS
COLO 205 colon = tested on: COLO 205 colon
SK-MEL-28 melanoma = tested on: SK-MEL-28 melanoma
MDA-MB-435 = tested on: MDA-MB-435
ACHN renal = tested on: ACHN renal
SR leukemia = tested on: SR leukemia
A498 renal = tested on: A498 renal
NCI-H23 lung = tested on: NCI-H23 lung
SW-620 colon = tested on: SW-620 colon
RXF 393 renal = tested on: RXF 393 renal
NCI/ADR-RES ovarian = tested on: NCI/ADR-RES ovarian
OVCAR-8 ovarian = tested on: OVCAR-8 ovarian
SF-539 CNS = tested on: SF-539 CNS
HCT-116 colon = tested on: HCT-116 colon
OVCAR-5 ovarian = tested on: OVCAR-5 ovarian
A549 NSCLC = tested on: A549 NSCLC
DU-145 prostate = tested on: DU-145 prostate
T-47D breast = tested on: T-47D breast
SN12C renal = tested on: SN12C renal
TK-10 renal = tested on: TK-10 renal
SNB-75 CNS = tested on: SNB-75 CNS
HT29 colon = tested on: HT29 colon
RPMI-8226 leukemia = tested on: RPMI-8226 leukemia
MDA-MB-231 breast = tested on: MDA-MB-231 breast
HS 578T breast = tested on: HS 578T breast
SK-MEL-5 melanoma = tested on: SK-MEL-5 melanoma
SK-OV-3 ovarian = tested on: SK-OV-3 ovarian
SK-MEL-2 melanoma = tested on: SK-MEL-2 melanoma
UACC-257 melanoma = tested on: UACC-257 melanoma
EKVX NSCLC = tested on: EKVX NSCLC
CAKI-1 renal = tested on: CAKI-1 renal

Measured: TGI

CN(c1cn(C2CC[C@@H](CO)O2)c(=O)[nH]c1=O)C1CCCCC1 (stereo partly specified)
not listed: SK-MEL-2 melanoma | UACC-257 melanoma | EKVX NSCLC | CAKI-1 renal
> 100 µM: all other assays above

O=C1c2cc([N+](=O)[O-])ccc2-c2ccc3c4ccc5c6c(ccc(c7ccc1c2c73)c64)C(=O)c1cc([N+](=O)[O-])ccc1-5
not listed: HCC-2998 colon | NCI-H460 lung | SF-539 CNS
> 100 µM: all other assays above
